What all share (test): biochemical
Common to all, as to design: radiometric methyltransferase selectivity assay with tritiated SAM, per cent activity
Common to all, as to conditions: read-out: % of control remaining

The target of one assay is T1, GLP (Homo sapiens, UniProt Q9H9B1).
T1 construct: gene EHMT1
T1 sequence (Q9H9B1 1-1298): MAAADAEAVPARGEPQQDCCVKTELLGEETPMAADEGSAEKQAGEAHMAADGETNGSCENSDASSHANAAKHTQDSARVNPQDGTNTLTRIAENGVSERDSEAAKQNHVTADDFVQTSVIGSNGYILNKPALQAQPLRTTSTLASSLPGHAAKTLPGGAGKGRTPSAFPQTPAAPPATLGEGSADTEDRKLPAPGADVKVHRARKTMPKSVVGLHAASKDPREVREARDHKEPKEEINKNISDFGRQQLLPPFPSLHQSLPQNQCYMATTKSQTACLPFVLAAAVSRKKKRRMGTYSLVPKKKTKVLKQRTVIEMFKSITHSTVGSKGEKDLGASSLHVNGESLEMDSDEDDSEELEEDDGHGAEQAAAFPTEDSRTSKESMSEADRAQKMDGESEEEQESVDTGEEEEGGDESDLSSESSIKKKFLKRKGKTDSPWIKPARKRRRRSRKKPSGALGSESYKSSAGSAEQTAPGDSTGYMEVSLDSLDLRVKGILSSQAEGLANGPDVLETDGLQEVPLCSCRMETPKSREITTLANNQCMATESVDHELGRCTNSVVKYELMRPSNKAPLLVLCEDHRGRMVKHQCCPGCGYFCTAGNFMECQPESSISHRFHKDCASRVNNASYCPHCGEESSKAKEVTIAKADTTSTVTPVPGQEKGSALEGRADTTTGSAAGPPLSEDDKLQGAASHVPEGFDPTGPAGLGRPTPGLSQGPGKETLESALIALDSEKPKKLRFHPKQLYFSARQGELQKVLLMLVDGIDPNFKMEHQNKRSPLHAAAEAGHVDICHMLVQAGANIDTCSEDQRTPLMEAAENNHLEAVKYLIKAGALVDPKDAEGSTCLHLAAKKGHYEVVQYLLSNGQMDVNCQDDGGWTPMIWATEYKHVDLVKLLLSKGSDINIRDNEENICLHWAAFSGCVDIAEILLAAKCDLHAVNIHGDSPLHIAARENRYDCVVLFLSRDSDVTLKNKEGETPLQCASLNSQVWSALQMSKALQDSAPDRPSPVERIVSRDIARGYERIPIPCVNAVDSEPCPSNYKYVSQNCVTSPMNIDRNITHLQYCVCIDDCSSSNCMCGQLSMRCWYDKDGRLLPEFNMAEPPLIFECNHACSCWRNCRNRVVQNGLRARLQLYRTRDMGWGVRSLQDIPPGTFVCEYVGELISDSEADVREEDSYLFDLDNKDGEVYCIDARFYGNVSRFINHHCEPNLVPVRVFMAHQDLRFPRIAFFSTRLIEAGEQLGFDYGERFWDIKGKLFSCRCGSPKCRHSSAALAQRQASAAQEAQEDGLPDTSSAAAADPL
A digest of the protocol:
(§1)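 Radiometric methyltransferase assays with ³H-SAM and substrate near apparent Km, compound tested at 1 and 10 μM. Methyl incorporation into biotinylated substrate read by scintillation proximity after guanidine quench; no-compound = 100%, no-enzyme = 0% activity.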

The next assay deals with SETD2 (Homo sapiens, UniProt Q9BYW2). A digest of the protocol:
as §1

The target of the next assay is PRMT3 (Homo sapiens, UniProt O60678). The method, boiled down: as §1
The target in the next assay is DOT1L (Homo sapiens, UniProt Q8TEK3). A digest of the protocol:
as §1

The next assay addresses T2, MLL3 (Homo sapiens, UniProt Q8NEZ4).
T2 construct: gene KMT2C
The method, boiled down: as §1

Another assay deals with ASH1L (Homo sapiens, UniProt Q9NR48). The method, boiled down:
as §1

In a further assay the target is PRDM9 (Homo sapiens, UniProt Q9NQV7). The method, boiled down:
as §1

The target in the next assay is PRMT1 (Homo sapiens, UniProt Q99873). A digest of the protocol: as §1
The target of the next assay is SMYD2 (Homo sapiens, UniProt Q9NRG4). A digest of the protocol: as §1

Experimental findings from article PMC7224190, “Pharmacological inhibition of PRMT7 links arginine monomethylation to the cellular stress response” (Nature Communications, 2020) are described below.

Sequence of SETD2 (Q9BYW2 whole entry): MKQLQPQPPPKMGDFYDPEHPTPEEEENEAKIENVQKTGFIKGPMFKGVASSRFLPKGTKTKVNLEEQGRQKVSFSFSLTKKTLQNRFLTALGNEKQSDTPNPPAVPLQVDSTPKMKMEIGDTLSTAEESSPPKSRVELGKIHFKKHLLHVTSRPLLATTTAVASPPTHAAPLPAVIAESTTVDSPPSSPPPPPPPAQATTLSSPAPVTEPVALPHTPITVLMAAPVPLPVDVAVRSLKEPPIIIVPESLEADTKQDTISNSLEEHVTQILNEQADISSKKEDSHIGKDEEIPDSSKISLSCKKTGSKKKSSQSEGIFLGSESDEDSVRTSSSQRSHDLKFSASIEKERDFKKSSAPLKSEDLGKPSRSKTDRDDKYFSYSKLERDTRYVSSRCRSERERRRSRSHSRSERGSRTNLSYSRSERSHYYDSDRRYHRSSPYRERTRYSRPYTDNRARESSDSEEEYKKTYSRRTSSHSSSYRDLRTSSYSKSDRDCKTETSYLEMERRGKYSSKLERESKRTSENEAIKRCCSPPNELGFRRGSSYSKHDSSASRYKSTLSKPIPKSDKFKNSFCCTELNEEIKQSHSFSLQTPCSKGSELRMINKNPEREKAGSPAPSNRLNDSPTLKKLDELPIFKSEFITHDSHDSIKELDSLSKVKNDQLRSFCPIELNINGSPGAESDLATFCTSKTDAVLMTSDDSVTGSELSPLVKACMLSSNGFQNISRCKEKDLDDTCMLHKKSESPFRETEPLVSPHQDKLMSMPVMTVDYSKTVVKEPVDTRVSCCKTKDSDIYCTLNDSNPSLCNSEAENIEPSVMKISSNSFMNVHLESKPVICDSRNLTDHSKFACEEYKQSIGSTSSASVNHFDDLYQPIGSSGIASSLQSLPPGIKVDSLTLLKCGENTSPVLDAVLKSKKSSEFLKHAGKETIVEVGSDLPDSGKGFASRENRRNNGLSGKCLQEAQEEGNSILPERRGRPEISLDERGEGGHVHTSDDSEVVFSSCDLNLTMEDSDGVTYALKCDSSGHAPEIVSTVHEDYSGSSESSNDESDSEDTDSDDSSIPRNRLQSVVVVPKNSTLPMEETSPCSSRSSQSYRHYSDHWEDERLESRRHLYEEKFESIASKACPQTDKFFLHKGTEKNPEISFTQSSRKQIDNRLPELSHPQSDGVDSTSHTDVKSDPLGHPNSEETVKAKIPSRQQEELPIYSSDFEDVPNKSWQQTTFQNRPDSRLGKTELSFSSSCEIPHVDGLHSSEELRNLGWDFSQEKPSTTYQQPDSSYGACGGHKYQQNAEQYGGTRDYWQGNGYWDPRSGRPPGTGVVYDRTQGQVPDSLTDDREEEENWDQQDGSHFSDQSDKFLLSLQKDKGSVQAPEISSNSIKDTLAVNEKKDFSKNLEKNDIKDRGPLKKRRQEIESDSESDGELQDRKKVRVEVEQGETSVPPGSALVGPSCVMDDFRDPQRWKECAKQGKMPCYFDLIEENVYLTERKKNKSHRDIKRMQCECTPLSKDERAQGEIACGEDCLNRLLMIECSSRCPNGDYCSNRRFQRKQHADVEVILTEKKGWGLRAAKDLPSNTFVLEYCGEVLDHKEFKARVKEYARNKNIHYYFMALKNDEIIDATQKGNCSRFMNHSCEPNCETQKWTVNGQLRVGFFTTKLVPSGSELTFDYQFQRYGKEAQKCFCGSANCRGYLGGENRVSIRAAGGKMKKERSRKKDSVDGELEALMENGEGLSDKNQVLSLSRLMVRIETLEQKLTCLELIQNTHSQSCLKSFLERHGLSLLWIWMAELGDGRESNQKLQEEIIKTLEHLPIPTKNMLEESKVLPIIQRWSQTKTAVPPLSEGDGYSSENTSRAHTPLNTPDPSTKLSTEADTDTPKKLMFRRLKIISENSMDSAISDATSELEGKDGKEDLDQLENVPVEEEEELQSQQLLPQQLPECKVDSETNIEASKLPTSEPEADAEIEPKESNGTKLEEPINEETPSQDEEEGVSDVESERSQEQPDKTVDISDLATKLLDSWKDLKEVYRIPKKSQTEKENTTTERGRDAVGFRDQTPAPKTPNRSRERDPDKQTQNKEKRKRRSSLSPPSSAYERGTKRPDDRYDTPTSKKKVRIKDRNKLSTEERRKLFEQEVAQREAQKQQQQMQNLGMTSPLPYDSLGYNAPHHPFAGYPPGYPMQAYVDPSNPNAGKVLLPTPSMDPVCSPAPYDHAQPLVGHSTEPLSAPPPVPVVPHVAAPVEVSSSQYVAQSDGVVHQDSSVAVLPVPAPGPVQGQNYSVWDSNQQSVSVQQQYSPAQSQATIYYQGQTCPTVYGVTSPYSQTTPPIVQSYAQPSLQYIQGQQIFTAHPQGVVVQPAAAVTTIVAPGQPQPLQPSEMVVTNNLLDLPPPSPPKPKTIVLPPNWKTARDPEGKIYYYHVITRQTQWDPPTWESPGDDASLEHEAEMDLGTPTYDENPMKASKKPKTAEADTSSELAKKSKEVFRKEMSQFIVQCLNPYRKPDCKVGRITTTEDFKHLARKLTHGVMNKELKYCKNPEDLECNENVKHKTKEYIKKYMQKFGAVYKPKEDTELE
Sequence of PRDM9 (Q9NQV7 whole entry): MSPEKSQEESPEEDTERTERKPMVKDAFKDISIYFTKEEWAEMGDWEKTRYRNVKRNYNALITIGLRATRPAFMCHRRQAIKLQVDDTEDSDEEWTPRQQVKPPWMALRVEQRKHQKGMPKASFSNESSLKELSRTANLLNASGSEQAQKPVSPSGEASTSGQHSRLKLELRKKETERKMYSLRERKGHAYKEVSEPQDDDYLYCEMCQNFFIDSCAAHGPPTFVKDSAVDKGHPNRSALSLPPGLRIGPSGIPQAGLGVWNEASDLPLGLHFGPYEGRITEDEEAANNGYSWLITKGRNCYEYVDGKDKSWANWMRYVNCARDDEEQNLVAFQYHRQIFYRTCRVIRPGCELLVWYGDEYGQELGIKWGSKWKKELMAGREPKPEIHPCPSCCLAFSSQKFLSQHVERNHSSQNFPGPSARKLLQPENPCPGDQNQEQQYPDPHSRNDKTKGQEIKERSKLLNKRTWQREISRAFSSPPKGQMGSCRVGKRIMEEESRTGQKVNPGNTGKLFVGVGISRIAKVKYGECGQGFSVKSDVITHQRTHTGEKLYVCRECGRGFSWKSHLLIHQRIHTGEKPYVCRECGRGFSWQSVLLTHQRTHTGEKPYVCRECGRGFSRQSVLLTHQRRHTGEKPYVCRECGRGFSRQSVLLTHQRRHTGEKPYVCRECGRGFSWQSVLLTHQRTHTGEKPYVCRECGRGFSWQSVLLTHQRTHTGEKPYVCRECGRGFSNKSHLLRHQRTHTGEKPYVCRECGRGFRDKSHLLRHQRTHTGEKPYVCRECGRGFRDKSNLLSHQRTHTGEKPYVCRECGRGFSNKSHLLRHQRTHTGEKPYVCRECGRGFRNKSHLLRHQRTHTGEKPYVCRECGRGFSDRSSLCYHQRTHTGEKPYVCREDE
Sequence of DOT1L (Q8TEK3 whole entry): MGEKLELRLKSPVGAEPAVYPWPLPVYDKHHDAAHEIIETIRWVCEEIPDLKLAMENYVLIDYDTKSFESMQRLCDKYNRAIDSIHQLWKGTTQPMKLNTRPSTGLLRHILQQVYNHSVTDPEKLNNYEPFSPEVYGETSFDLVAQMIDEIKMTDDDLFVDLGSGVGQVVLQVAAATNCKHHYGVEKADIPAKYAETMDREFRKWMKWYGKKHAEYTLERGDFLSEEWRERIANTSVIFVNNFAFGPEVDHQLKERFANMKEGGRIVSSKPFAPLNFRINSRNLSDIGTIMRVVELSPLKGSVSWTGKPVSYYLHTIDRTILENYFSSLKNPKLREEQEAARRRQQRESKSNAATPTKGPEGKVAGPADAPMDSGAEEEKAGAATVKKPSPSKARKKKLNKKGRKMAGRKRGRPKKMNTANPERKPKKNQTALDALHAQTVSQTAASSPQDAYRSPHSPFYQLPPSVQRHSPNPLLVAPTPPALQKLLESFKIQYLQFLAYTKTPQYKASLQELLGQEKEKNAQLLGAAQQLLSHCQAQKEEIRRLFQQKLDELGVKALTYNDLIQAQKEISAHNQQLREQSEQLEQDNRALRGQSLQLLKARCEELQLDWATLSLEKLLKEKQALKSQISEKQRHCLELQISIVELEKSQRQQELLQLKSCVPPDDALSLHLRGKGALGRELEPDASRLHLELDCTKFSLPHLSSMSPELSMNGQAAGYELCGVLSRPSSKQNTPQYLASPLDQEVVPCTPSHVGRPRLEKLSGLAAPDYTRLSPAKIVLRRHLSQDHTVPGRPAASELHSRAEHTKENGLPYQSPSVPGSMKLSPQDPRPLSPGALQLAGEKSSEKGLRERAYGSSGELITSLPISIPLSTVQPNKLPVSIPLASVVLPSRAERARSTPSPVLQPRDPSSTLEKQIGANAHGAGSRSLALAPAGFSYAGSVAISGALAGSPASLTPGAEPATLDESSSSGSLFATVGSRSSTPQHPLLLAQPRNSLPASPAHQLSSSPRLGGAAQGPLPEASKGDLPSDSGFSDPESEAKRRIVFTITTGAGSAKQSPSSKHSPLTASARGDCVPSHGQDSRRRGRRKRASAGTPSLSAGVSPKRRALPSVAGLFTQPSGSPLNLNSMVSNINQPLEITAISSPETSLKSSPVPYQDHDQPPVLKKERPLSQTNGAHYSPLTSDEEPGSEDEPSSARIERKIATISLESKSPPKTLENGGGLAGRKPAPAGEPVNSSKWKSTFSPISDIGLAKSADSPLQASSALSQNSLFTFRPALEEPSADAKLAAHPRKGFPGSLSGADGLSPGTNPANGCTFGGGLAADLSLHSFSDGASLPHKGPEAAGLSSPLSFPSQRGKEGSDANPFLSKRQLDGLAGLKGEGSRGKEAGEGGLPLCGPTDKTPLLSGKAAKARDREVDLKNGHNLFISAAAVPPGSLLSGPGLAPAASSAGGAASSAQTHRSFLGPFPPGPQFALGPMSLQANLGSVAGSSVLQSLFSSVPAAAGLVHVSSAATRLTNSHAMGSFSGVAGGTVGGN

As to `CC1(C)O[C@@H]2[C@H](O1)[C@@H](CSCCCCNCc1cccc(-c3ccc(Cl)cc3)c1)O[C@H]2n1cnc2c(N)ncnc21` [SGC8158N], the remaining activity at 1 µM at GLP worked out at 95%; at SETD2, 103%; at PRMT3 it was 96%; on DOT1L it was 97%; on MLL3, 99%; at ASH1L, 99%. Besides, the values for the remaining activity at 1 µM at PRDM9, at PRMT1 and at SMYD2 were 101%, 94% and 105%, respectively. Besides, the remaining activity at 10 µM on GLP amounted to 90%; at SETD2 it was 97%; at PRMT3, 96%; on DOT1L, 95%; on MLL3, 100%; on ASH1L it was 102%. Besides, the remaining activity at 10 µM on PRDM9 was 98%; at PRMT1 it was 91%; on SMYD2, 104%.

On to `Nc1ncnc2c1ncn2[C@@H]1O[C@H](CSCCCCNCc2cccc(-c3ccc(Cl)cc3)c2)[C@@H](O)[C@H]1O` [SGC8158], for which the remaining activity at 1 µM at GLP was determined as 99%; on SETD2, 95%; on PRMT3, 57%; on DOT1L, 58%; at MLL3 it was 105%; on ASH1L it was 96%. Further, the remaining activity at 1 µM was found to be 106% at PRDM9, 104% at PRMT1 and 101% at SMYD2. Besides, the remaining activity at 10 µM was determined as 95% on GLP; 86% on SETD2; 6% on PRMT3; 13% at DOT1L; 105% at MLL3; 97% at ASH1L. Also, the remaining activity at 10 µM on PRDM9 was 96%; at PRMT1, 67%; on SMYD2, 84%.
